The target in test [1] is T1, Nicotinic acetylcholine receptor alpha1 subunit (Heliothis virescens, UniProt O46128).
T1 sequence (O46128 whole entry): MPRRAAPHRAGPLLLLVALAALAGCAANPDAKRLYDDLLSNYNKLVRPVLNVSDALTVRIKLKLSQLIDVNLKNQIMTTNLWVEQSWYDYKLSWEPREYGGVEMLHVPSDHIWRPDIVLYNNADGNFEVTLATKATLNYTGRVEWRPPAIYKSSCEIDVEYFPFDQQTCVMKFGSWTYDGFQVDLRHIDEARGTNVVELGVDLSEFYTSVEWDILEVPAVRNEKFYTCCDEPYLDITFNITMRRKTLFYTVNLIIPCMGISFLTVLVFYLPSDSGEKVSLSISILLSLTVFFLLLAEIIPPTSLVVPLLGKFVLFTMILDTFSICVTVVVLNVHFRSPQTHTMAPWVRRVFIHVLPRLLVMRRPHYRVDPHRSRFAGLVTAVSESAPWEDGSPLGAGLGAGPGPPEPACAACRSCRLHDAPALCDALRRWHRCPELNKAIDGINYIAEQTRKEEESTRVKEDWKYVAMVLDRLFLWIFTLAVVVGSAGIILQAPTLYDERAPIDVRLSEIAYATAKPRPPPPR
The experiment in a line: Agonist activity at nAChR in Heliothis virescens neuronal cells by voltage clamp technique. The test is classed as functional, cell-based.

Test [2] relates to Myzus persicae. Put plainly: Insecticidal activity against Myzus persicae at 4 to 500 g/ha. In kind it is functional, organism-based.
The test system of test [3] is Spodoptera frugiperda. Put plainly: Insecticidal activity against Spodoptera frugiperda at 4 to 500 g/ha. In kind it is functional, organism-based.
Test [4] has as its target T2, Nicotinic acetylcholine receptor alpha1 subunit (Heliothis virescens) (UniProt O46128).
T2 sequence (whole entry): T1 sequence (O46128 whole entry)
The experiment in a line: Antagonist activity at nAChR in Heliothis virescens neuronal cells assessed as blockade of acetylcholine-induced response at 10 uM by voltage clamp technique. The test is classed as functional, cell-based. Also on record: scale not given: the % may be the effect or the level left.

Test [5] has as its target T1, Nicotinic acetylcholine receptor alpha1 subunit. Put plainly: Antagonist activity at nAChR in Heliothis virescens neuronal cells by voltage clamp technique. The test is classed as functional, cell-based.
The subject of test [6] is Spodoptera frugiperda. The experiment in a line: Insecticidal activity against Spodoptera frugiperda at 500 g/ha. The test is classed as functional, organism-based.
In test [7] the test system is Myzus persicae. The experiment in a line: Insecticidal activity against Myzus persicae at 500 g/ha. In kind it is functional, organism-based.

Calls of active or inactive are those of the source. The calls are words filed in the database; no cut-off is given here.

Compound `CCCC[C@@]12C3CCN1[C@H]1C[C@H]2O[C@@]32O/C(=C3\OC(=O)C(C)=C3OC)[C@@H](C)[C@H]12` [STEMOFOLINE] yielded an EC50 in test [1] of 50 nM. Besides, the result in test [2] and in test [3] was Active. The compound `CCCC[C@]12[C@@H]3C[C@H]4[C@H]5[C@H](C)C(C6OC(=O)C(CO)=C6OC)O[C@]5(O3)[C@@H]1CCN42` (some centres undefined) [16-hydroxystemofoline] gave an EC50 in test [1] of 12 nM.

In the case of `CC1=C[C@H]([C@H]2O[C@@H]3CCCN4[C@@H](CC[C@H]4[C@@H]4C[C@H](C)C(=O)O4)[C@H]3[C@@H]2C)OC1=O` (relative stereo), in test [4], the Activity was found to be 90%.

In turn, `COC1=C(C)C(=O)O/C1=C(\O)[C@@H](C)[C@H]1[C@@H](O)CCCN2[C@H]1CC[C@H]2[C@@H]1C[C@H](C)C(=O)O1` [PROTOSTEMODIOL] gave an IC50 in test [5] of 10 µM. `CCCC[C@]12[C@H]3C[C@H]4[C@H]5[C@H](C)C(C6OC(=O)C(C)=C6OC)O[C@]5(O3)[C@@H]1[C@H](O)CN42` (stereo partly drawn) [6beta-hydroxystemofoline]: the result in test [6] and in test [7] was inactive. In test [1], this compound returned an EC50 of 157 nM.
